For data set [1], the system named is Human immunodeficiency virus 1. As to the kind of experiment: Antiviral activity against HIV1 NL4.3 infected in human MT4 cells expressing CD4 and CXCR4 assessed as inhibition of virus-induced cytopathicity. In kind it is functional, organism-based. The following applies: Human immunodeficiency virus 1, NL4.3, MT4.
Data set [2] can be described thus: Cytotoxicity against human MT4 cells expressing CD4 and CXCR4 assessed as cell viability.
Data set [3] concerns the target T1, C-X-C chemokine receptor type 4 (Homo sapiens, UniProt P61073). As to the kind of experiment: Antagonist activity at CXCR4 in human CEM-CCRF cells assessed as inhibition of SDF-1-induced calcium flux. In kind it is functional, cell-based. For orientation: Calcium flux is commonly read through the fluorescence of an indicator in the cells.
For data set [4], the target named is T1, C-X-C chemokine receptor type 4. Nature of the data set: Inhibition of anti-CXCR4 12G5 monoclonal antibody to CXCR4 in human SUP-T1 cells pretreated for 30 mins by flow cytometry. The class given is cell-based. On the technique in general: Flow cytometry measures light scatter and fluorescence of single cells or particles in a stream.
[5] abbreviates: MT4 cells expressing CD4 and CXCR4.

39 molecules from ChEMBL document CHEMBL1156989, “Discovery of novel small molecule orally bioavailable C-X-C chemokine receptor 4 antagonists that are potent inhibitors of T-tropic (X4) HIV-1 replication” (J Med Chem, 2010) can be followed below.

For orientation: IC50 means the point on the concentration scale where inhibition reaches its midpoint. The CC50 is the concentration at which the toxic effect on the cells reaches its halfway point.

T1 sequence (P61073 whole entry): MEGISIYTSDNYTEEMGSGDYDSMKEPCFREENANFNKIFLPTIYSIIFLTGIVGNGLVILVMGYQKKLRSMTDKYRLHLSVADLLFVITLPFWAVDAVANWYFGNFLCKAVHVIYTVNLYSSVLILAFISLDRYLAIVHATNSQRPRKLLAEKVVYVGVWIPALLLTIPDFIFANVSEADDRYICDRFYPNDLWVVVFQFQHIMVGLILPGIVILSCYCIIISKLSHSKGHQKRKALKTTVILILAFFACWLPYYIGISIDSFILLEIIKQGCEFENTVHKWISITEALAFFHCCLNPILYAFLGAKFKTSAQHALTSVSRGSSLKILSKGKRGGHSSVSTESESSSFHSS

With `c1ccc(CCN(Cc2ccc(CNCc3ccccn3)cc2)C2CCCc3cccnc32)nc1` (configuration not stated), the IC50 in data set [1] was 2.1 µM. The cytotoxic concentration (CC50) in data set [2] (setting [5]) is more than 118 µM.

Consider `NCc1cccc(CN(Cc2nc3ccccc3[nH]2)C2CCCc3cccnc32)c1` (configuration not stated), for which the IC50 came to 1.4 µM in data set [3] and 0.575 µM in data set [1]. The 50% cytotoxic concentration (CC50) in data set [2] (setting [5]) amounted to 45.9 µM.

Turning to `NCCCN(Cc1nc2ccccc2[nH]1)C1CCCc2cccnc21` (configuration not stated), the IC50 in data set [3] is 0.068 µM; in data set [1], 0.077 µM. For the same molecule, in data set [2] (setting [5]), the CC50 amounted to 32.9 µM.

In the case of `NCCCCN(Cc1nc2ccccc2[nH]1)C1CCCc2cccnc21` (configuration not stated), the IC50 in data set [1] was determined as 0.0048 µM. In addition, the CC50 in data set [2] (setting [5]) amounted to 160 µM.

For the molecule `NCCCCCCN(Cc1nc2ccccc2[nH]1)C1CCCc2cccnc21` (configuration not stated), the IC50 in data set [3] amounted to 0.075 µM; in data set [1], 0.101 µM. Also, the CC50 in data set [2] (mt4) turned out to be 30.2 µM.

Regarding `c1ccc(CNCCN(Cc2ccc(CNCc3ccccn3)cc2)C2CCCc3cccnc32)nc1` (configuration not stated), the IC50 in data set [1] stood at 0.06 µM. Moreover, the CC50 in data set [2] (setting [5]) stood at 21 µM.

In the case of `NC/C=C\CN(Cc1nc2ccccc2[nH]1)C1CCCc2cccnc21` (configuration not stated), the IC50 came out at 0.077 µM in data set [3] and 0.015 µM in data set [1]. Further, in data set [2] (setting [5]), the CC50 is 51.9 µM.

As for `NC/C=C/CN(Cc1nc2ccccc2[nH]1)C1CCCc2cccnc21` (configuration not stated), the IC50 in data set [3] turned out to be 0.16 µM; in data set [1], 0.028 µM. Moreover, in data set [2] (setting [5]), the CC50 was found to be 50.8 µM.

On to `NCC#CCN(Cc1nc2ccccc2[nH]1)C1CCCc2cccnc21` (configuration not stated), for which the IC50 in data set [3] worked out at 0.973 µM; in data set [1], 0.17 µM. Besides, the half-maximal cytotoxic concentration (CC50) in data set [2] (setting [5]) is 10.8 µM.

With `c1ccc(CNCc2ccc(CN(Cc3nc4ccccc4s3)C3CCCc4cccnc43)cc2)nc1` (configuration not stated), the IC50 in data set [1] was determined as 4.6 µM. Also, in data set [2] (setting [5]), the 50% cytotoxic concentration (CC50) is 22.3 µM.

For the molecule `c1ccc(CNCc2ccc(CNC3CCCCc4cccnc43)cc2)nc1` (configuration not stated), the half-inhibitory concentration (IC50) in data set [1] is 2.5 µM.

Turning to `c1ccc(CNCc2ccc(CN(CCc3nc4ccccc4[nH]3)C3CCCc4cccnc43)cc2)nc1` (configuration not stated), in data set [1], the concentration for half-maximal inhibition (IC50) was determined as 1.1 µM. Moreover, the 50% cytotoxic concentration (CC50) in data set [2] (setting [5]) came out at 23.1 µM.

Regarding `c1ccc(CNCc2ccc(CN(Cc3nc4ccccc4[nH]3)[C@@H]3CCCc4cccnc43)cc2)nc1`, the figures for the IC50 in data set [1] and in data set [4] were 1.08 µM and 29.2 µM, respectively.

For the molecule `c1ccc(CNCc2ccc(CN(Cn3cnc4ccccc43)C3CCCc4cccnc43)cc2)nc1` (configuration not stated), the IC50 in data set [1] is 18.8 µM. Besides, the CC50 in data set [2] (setting [5]) is 21 µM.

On to `c1ccc(CNCc2ccc(CN(Cc3ccccn3)C3CCc4cccnc43)cc2)nc1` (configuration not stated), for which the IC50 in data set [1] stood at 4.9 µM. Moreover, the CC50 in data set [2] (setting [5]) is 124 µM.

Consider `c1ccc(CNCc2ccc(CN(Cc3ccccn3)C3CCCc4cccnc43)cc2)nc1` (configuration not stated), for which the half-inhibitory concentration (IC50) in data set [1] worked out at 0.27 µM. For the same molecule, the CC50 in data set [2] (setting [5]) was 44 µM.

Take `c1ccc(CNCc2ccc(CNC3CCc4cccnc43)cc2)nc1` (configuration not stated): in data set [1], the half-inhibitory concentration (IC50) worked out at 14.1 µM.

`c1ccc(CNCc2ccc(CNC3CCCc4cccnc43)cc2)nc1` (configuration not stated): in data set [1], the IC50 came out at 2.7 µM.

For the molecule `c1ccc(CN(Cc2ccc(CNCc3ccccn3)cc2)C2CCCc3cccnc32)cc1` (configuration not stated), in data set [1], the IC50 was more than 4.3 µM. For the same molecule, in data set [2] (setting [5]), the cytotoxic concentration (CC50) turned out to be 21 µM.

As for `c1ccc(CNCc2ccc(CN(Cc3ncc[nH]3)C3CCCc4cccnc43)cc2)nc1` (configuration not stated), the 50% inhibitory concentration (IC50) in data set [1] turned out to be 0.2 µM. Further, the 50% cytotoxic concentration (CC50) in data set [2] (setting [5]) came to 0.5 µM.

Regarding `NCCN(Cc1ccc(CNCc2ccccn2)cc1)C1CCCc2cccnc21` (configuration not stated), in data set [1], the 50% inhibitory concentration (IC50) was more than 25 µM. Also, in data set [2] (setting [5]), the cytotoxic concentration (CC50) stood at 126 µM.

On to `c1ccc(CNCc2ccc(CN(Cc3nc4ccccc4o3)C3CCCc4cccnc43)cc2)nc1` (configuration not stated), for which the concentration for half-maximal inhibition (IC50) in data set [1] came out at 9.1 µM. For the same molecule, in data set [2] (setting [5]), the half-maximal cytotoxic concentration (CC50) worked out at 204 µM.

`c1ccc(CNCCN(Cc2ccc(CNCc3ccccn3)cc2)C2CCCc3cccnc32)cc1` (configuration not stated): in data set [1], the half-maximal inhibitory concentration (IC50) is 0.92 µM. Besides, the CC50 in data set [2] (setting [5]) is 23 µM.

`c1ccc(CNCc2ccc(CN(CCCc3nc4ccccc4[nH]3)C3CCCc4cccnc43)cc2)nc1` (configuration not stated): in data set [1], the half-inhibitory concentration (IC50) turned out to be 1.2 µM. For the same molecule, the CC50 in data set [2] (setting [5]) worked out at 101 µM.

As to `O=C(Nc1ccc(CN(Cc2nc3ccccc3[nH]2)C2CCCc3cccnc32)cc1)c1ccccn1` (configuration not stated), in data set [1], the IC50 stood at 0.66 µM. In addition, in data set [2] (setting [5]), the CC50 amounted to 37.5 µM.

In the case of `O=C(NCc1ccc(CN(Cc2nc3ccccc3[nH]2)C2CCCc3cccnc32)cc1)c1ccccn1` (configuration not stated), in data set [1], the half-inhibitory concentration (IC50) came to 0.88 µM. For the same molecule, in data set [2] (setting [5]), the CC50 was 36.8 µM.

As for `CN(C)CCCCN(Cc1nc2ccccc2[nH]1)C1CCCc2cccnc21` (configuration not stated), the IC50 turned out to be 0.087 µM in data set [3] and 0.051 µM in data set [1]. Further, the CC50 in data set [2] (setting [5]) amounted to 29.5 µM.

As for `CNCCCCN(Cc1nc2ccccc2[nH]1)C1CCCc2cccnc21` (configuration not stated), the IC50 in data set [3] was 0.19 µM. Besides, the CC50 in data set [2] (setting [5]) was 28.2 µM.

In the case of `O=C(Nc1ccccn1)c1ccc(CN(Cc2nc3ccccc3[nH]2)C2CCCc3cccnc32)cc1` (configuration not stated), the IC50 in data set [1] was 0.98 µM. In addition, the CC50 in data set [2] (setting [5]) was 34.3 µM.

Take `O=C(NCc1ccccn1)c1ccc(CN(Cc2nc3ccccc3[nH]2)C2CCCc3cccnc32)cc1` (configuration not stated): the IC50 in data set [1] came out at 1.44 µM. In addition, the CC50 in data set [2] (setting [5]) amounted to 127 µM.

Consider `NCc1ccc(CN(Cc2nc3ccccc3[nH]2)C2CCCc3cccnc32)cc1` (configuration not stated), for which the 50% inhibitory concentration (IC50) in data set [3] is 0.119 µM; in data set [1], 0.167 µM. Moreover, the CC50 in data set [2] (setting [5]) was found to be 238 µM.

With `NCCCCCN(Cc1nc2ccccc2[nH]1)C1CCCc2cccnc21` (configuration not stated), the IC50 in data set [3] was 0.514 µM; in data set [1], 0.074 µM. Moreover, the CC50 in data set [2] (setting [5]) is 30.2 µM.

Consider `N#CCCCCN(Cc1nc2ccccc2[nH]1)C1CCCc2cccnc21` (configuration not stated), for which the 50% inhibitory concentration (IC50) in data set [3] amounted to 0.442 µM; in data set [1], 0.774 µM. Further, the CC50 in data set [2] (mt4) was 55.3 µM.

Consider `NCCCC(=O)N(Cc1nc2ccccc2[nH]1)C1CCCc2cccnc21` (configuration not stated), for which the IC50 came out at 3.2 µM in data set [3] and 2.64 µM in data set [1]. In addition, the CC50 in data set [2] (setting [5]) worked out at 152 µM.

Take `c1ccc(CNCc2ccc(CN(Cc3nc4ccccc4[nH]3)C3CCCc4cccnc43)cc2)cc1` (configuration not stated): the IC50 in data set [1] stood at 0.095 µM. Further, the CC50 in data set [2] (setting [5]) was found to be 26.4 µM.

Turning to `NCc1ccccc1CN(Cc1nc2ccccc2[nH]1)C1CCCc2cccnc21` (configuration not stated), the half-maximal inhibitory concentration (IC50) is 0.05 µM in data set [3] and 0.021 µM in data set [1]. Besides, in data set [2] (setting [5]), the CC50 amounted to 29.6 µM.

Consider `NCCCCN(Cc1nc2ccccc2[nH]1)[C@@H]1CCCc2cccnc21`, for which the 50% inhibitory concentration (IC50) in data set [1] turned out to be 0.144 µM.

On to `NCCN(Cc1nc2ccccc2[nH]1)C1CCCc2cccnc21` (configuration not stated), for which the IC50 in data set [3] and in data set [1] was 1.37 µM throughout. Further, in data set [2] (setting [5]), the CC50 amounted to 6.86 µM.

As to `c1ccc(CNCc2ccc(CN(Cc3cc4ccccc4[nH]3)C3CCCc4cccnc43)cc2)nc1` (configuration not stated), the IC50 in data set [1] amounted to 1.6 µM. Further, the half-maximal cytotoxic concentration (CC50) in data set [2] (setting [5]) came out at 8 µM.
